Where a name gives a salt, the structure may show the parent alone.
Key:
PI 4-kinase beta = PI 4-kinase beta (Homo sapiens (Human), UniProt Q9UBF8); conditions: read-out: Assay D PI4Kβ IC50
Vps34 = Vps34 (Homo sapiens (Human), UniProt Q8NEB9); conditions: read-out: Assay C VPS34 IC50
Sequence of Vps34 (Q8NEB9 whole entry): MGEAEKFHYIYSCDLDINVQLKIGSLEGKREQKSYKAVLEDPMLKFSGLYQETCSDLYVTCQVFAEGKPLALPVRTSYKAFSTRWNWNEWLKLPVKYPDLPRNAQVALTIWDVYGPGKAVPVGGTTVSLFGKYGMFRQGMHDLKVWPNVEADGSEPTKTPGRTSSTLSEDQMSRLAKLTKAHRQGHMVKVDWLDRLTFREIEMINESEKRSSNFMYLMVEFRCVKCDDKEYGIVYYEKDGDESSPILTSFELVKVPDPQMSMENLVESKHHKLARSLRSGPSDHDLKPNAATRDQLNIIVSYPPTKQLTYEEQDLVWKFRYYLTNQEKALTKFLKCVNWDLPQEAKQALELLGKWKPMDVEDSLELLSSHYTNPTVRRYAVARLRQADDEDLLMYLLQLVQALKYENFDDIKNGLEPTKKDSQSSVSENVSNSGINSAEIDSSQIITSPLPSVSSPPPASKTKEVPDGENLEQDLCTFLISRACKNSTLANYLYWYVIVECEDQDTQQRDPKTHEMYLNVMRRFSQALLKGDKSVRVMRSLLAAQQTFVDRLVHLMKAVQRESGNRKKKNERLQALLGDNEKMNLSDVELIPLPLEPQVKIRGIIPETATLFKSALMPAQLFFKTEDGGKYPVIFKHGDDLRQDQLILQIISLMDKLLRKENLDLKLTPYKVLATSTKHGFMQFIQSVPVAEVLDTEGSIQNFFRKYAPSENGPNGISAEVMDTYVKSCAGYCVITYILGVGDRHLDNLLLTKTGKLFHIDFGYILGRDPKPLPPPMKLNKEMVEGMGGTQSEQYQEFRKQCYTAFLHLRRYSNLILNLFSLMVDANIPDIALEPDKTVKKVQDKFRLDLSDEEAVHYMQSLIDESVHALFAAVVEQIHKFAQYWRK

Sequence of PI 4-kinase beta (Q9UBF8 whole entry): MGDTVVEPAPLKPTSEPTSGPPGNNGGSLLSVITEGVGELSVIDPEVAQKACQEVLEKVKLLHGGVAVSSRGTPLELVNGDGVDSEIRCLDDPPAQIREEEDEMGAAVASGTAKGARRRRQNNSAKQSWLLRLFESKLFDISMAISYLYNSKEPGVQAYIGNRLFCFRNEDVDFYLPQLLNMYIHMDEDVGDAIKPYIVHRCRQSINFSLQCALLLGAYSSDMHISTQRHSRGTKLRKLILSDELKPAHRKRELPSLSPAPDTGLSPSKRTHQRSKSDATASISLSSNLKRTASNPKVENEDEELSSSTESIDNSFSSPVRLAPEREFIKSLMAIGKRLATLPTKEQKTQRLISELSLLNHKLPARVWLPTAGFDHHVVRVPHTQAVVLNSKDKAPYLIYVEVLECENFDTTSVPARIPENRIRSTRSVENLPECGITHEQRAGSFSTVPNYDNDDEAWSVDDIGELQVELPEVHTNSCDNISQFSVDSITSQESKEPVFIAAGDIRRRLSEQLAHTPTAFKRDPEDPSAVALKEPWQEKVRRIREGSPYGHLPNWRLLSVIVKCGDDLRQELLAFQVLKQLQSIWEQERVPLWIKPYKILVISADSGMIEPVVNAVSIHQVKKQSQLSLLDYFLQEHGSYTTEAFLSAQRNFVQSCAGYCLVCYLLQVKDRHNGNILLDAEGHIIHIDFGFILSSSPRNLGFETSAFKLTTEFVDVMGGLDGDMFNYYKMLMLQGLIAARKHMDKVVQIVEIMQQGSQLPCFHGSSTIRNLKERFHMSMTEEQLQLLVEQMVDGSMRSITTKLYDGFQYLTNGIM

SMILES	IC50 (PI 4-kinase beta) [µM]	IC50 (Vps34) [µM]
Cc1noc(-c2cc(-c3cc(S(=O)(=O)NCC(C)(F)F)ccc3C)cnc2N)n1 [Example 37.38, 3-(6-Amino-5-(3-methyl-1,2,4-oxadiazol-5-yl)pyridin-3-yl)-N-(2,2-difluoropropyl)-4-methylbenzenesulfonamide]	7.5	
Cc1noc(-c2cc(-c3cc(S(=O)(=O)N4CC[C@H](O)C4)ccc3C)cnc2N)n1 [Example 37.32, (S)-1-((3-(6-Amino-5-(3-methyl-1,2,4-oxadiazol-5-yl)pyridin-3-yl)-4-methylphenyl)sulfonyl)pyrrolidin-3-ol hydrochloride]	8.5	
Cc1noc(-c2cc(-c3cc(S(=O)(=O)NCC4(O)COC4)ccc3C)cnc2N)n1 [Example 56, 3-(6-Amino-5-(3-methyl-1,2,4-oxadiazol-5-yl)pyridin-3-yl)-N-((3-hydroxyoxetan-3-yl)methyl)-4-methylbenzenesulfonamide]	> 10	> 10
Cc1ccc(S(=O)(=O)NCC(C)(C)O)cc1-c1cnc(N)c(-c2ccn(C)c2)c1 [Example 58, 3-(6-Amino-5-(1-methyl-1H-pyrrol-3-yl)pyridin-3-yl)-N-(2-hydroxy-2-methylpropyl)-4-methylbenzenesulfonamide hydrochloride]	3.2	
Cc1ncc(-c2cc(-c3cc(S(=O)(=O)NOCC(C)(C)O)ccc3C)cnc2N)o1 [Example 107, 3-(6-amino-5-(2-methyloxazol-5-yl)pyridin-3-yl)-N-(2-hydroxy-2-methylpropoxy)-4-methylbenzenesulfonamide hydrochloride]	0.66	> 10
CONS(=O)(=O)c1ccc(C)c(-c2cnc(N)c(-c3nc(C)no3)c2)c1 [Example 46, 3-(6-Amino-5-(3-methyl-1,2,4-oxadiazol-5-yl)pyridin-3-yl)-N-methoxy-4-methylbenzenesulfonamide]	> 10	
Cc1nc(-c2cc(-c3cc(S(=O)(=O)NCC(C)(C)O)ccc3C)cnc2N)cs1 [Example 59, 3-(6-Amino-5-(2-methylthiazol-4-yl)pyridin-3-yl)-N-(2-hydroxy-2-methylpropyl)-4-methylbenzenesulfonamide]	> 10	> 10
Cc1nc(-c2cc(-c3cc(S(=O)(=O)N[C@H]4CC[C@H](O)CC4)ccc3C)cnc2N)cs1 [Example 92, 3-(6-Amino-5-(2-methylthiazol-4-yl)pyridin-3-yl)-N-((1r,4r)-4-hydroxycyclohexyl)-4-methylbenzenesulfonamide]	5.1	> 10
Cc1ccc(S(=O)(=O)NCC(C)(C)O)cc1-c1cnc(N)c(-n2cncn2)c1 [Example 81, 3-(6-Amino-5-(1H-1,2,4-triazol-1-yl)pyridin-3-yl)-N-(2-hydroxy-2-methylpropyl)-4-methylbenzenesulfonamide hydrochloride]	> 9.78	> 9.8
Cc1cc(-c2cc(-c3cc(S(=O)(=O)NCCC4CCOCC4)ccc3C)cnc2N)on1 [Example 19.12, 3-(6-amino-5-(3-methylisoxazol-5-yl)pyridin-3-yl)-4-methyl-N-(2-(tetrahydro-2H-pyran-4-yl)ethyl)benzenesulfon-amide trifluoroacetic acid salt]	4.3	> 10
Cc1cnc(-c2cc(-c3cc(S(=O)(=O)NCCC(C)(C)O)ccc3C)cnc2N)s1 [Example 91, 3-(6-Amino-5-(5-methylthiazol-2-yl)pyridin-3-yl)-N-(3-hydroxy-3-methylbutyl)-4-methylbenzenesulfonamide]	0.79	> 10
Cc1ncc(-c2cc(-c3cc(S(=O)(=O)NCCO)ccc3C)cnc2N)o1 [Example 104.5, 3-(6-amino-5-(2-methyloxazol-5-yl)pyridin-3-yl)-N-(2-hydroxyethyl)-4-methylbenzenesulfon-amide]	3.1	
Cc1noc(-c2cc(-c3cc(S(=O)(=O)NC[C@H]4CCCO4)ccc3C)cnc2N)n1 [Example 37.5, (R)-3-(6-Amino-5-(3-methyl-1,2,4-oxadiazol-5-yl)pyridin-3-yl)-4-methyl-N-((tetrahydrofuran-2-yl)methyl)benzenesulfonamide]	8	
Cc1cc(-c2cc(-c3cc(S(=O)(=O)N4CC5(CCOC5)C4)ccc3C)cnc2N)on1 [Example 19.1, 5-(5-(6-oxa-2-azaspiro[3.4]octan-2-ylsulfonyl)-2-methylphenyl)-3-(3-methylisoxazol-5-yl)pyridin-2-amine trifluoroacetic acid salt]	4	
Cc1ncc(-c2cc(-c3cc(S(=O)(=O)NCC(C)(C)CO)ccc3C)cnc2N)o1 [Example 104.2, 3-(6-amino-5-(2-methyloxazol-5-yl)pyridin-3-yl)-N-(3-hydroxy-2,2-dimethylpropyl)-4-methylbenzenesulfon-amide]	1.1	
COCC1CCN(S(=O)(=O)c2ccc(C)c(-c3cnc(N)c(-c4cc(C)no4)c3)c2)CC1 [Example 19.18, 5-(5-((4-(methoxymethyl)piperidin-1-yl)sulfonyl)-2-methylphenyl)-3-(3-methylisoxazol-5-yl)pyridin-2-amine trifluoroacetic acid salt]	3.8	

SMILES	IC50 (PI 4-kinase beta) [µM]	IC50 (Vps34) [µM]
Cc1cc(-c2cc(-c3cc(S(=O)(=O)N4CCC[C@H]4CO)ccc3C)cnc2N)on1 [Example 19.15, (S)-(1-((3-(6-amino-5-(3-methylisoxazol-5-yl)pyridin-3-yl)-4-methylphenyl)sulfonyl)pyrrolidin-2-yl)methanol trifluoroacetic acid salt]	0.9	
Cc1noc(-c2cc(-c3cc(S(N)(=O)=O)ccc3C)cnc2N)n1 [Example 75, 3-(6-Amino-5-(3-methyl-1,2,4-oxadiazol-5-yl)pyridin-3-yl)-4-methylbenzenesulfonamide]	> 10	
Cc1cc(-c2cc(-c3cc(S(=O)(=O)N4CCCC4(C)C)ccc3C)cnc2N)on1 [Example 19.9, 5-(5-((2,2-dimethylpyrrolidin-1-yl)sulfonyl)-2-methylphenyl)-3-(3-methylisoxazol-5-yl)pyridin-2-amine trifluoroacetic acid salt]	1.9	
Cc1cc(-c2cc(-c3cc(S(=O)(=O)N4CCNC(=O)C4)ccc3C)cnc2N)on1 [Example 19.17, 4-((3-(6-amino-5-(3-methylisoxazol-5-yl)pyridin-3-yl)-4-methylphenyl)sulfonyl) piperazin-2-one trifluoroacetic acid salt]	1.4	
Cc1ncc(-c2cc(-c3cc(S(=O)(=O)NCC4CC4)ccc3C)cnc2N)o1 [Example 104.12, 3-(6-amino-5-(2-methyloxazol-5-yl)pyridin-3-yl)-N-(cyclopropylmethyl)-4-methylbenzenesulfon-amide]	2.1	
COC[C@@H]1COCCN1S(=O)(=O)c1ccc(C)c(-c2cnc(N)c(-c3cc(C)no3)c2)c1 [Example 19.20, (R)-5-(5-((3-(methoxymethyl)morpho-lino)sulfonyl)-2-methylphenyl)-3-(3-methylisoxazol-5-yl)pyridin-2-amine trifluoroacetic acid salt]	4.2	
Cc1ccc(S(=O)(=O)NCC(C)(C)O)cc1-c1cnc(N)c(-c2cc(C(=O)N3CCOCC3)no2)c1 [Example 42, 3-(6-Amino-5-(3-(morpholine-4-carbonyl)isoxazol-5-yl)pyridin-3-yl)-N-(2-hydroxy-2-methylpropyl)-4-methylbenzenesulfonamide]	2.9	
Cc1noc(-c2cc(-c3cc(S(=O)(=O)NC(CO)C4CCOC4)ccc3C)cnc2N)n1 (stereo not drawn) [Example 37.21, 3-(6-Amino-5-(3-methyl-1,2,4-oxadiazol-5-yl)pyridin-3-yl)-N-(2-hydroxy-1-(tetrahydrofuran-3-yl)ethyl)-4-methylbenzenesulfonamide]	> 10	
Cc1ncc(-c2cc(-c3cc(S(=O)(=O)NCC4(CO)COC4)ccc3C)cnc2N)o1 [Example 67, 3-(6-Amino-5-(2-methyloxazol-5-yl)pyridin-3-yl)-N-((3-(hydroxymethyl)oxetan-3-yl)methyl)-4-methylbenzenesulfonamide]		9.5
Cc1noc(-c2cc(-c3cc(S(=O)(=O)NCC(C)(C)O)c(Cl)cc3C)cnc2N)n1 [Example 89, 5-(6-Amino-5-(3-methyl-1,2,4-oxadiazol-5-yl)pyridin-3-yl)-2-chloro-N-(2-hydroxy-2-methylpropyl)-4-methylbenzenesulfonamide]		> 10
Cc1ncc(-c2cc(-c3cc(S(=O)(=O)NCC(F)F)ccc3C)cnc2N)o1 [Example 104.10, 3-(6-amino-5-(2-methyloxazol-5-yl)pyridin-3-yl)-N-(2,2-difluoroethyl)-4-methylbenzenesulfon-amide]		1.5
Cc1cc(-c2cc(-c3cc(S(=O)(=O)N4CCOC[C@H]4C)ccc3C)cnc2N)on1 [Example 19.6, (R)-5-(2-methyl-5-((3-methylmorpholino)sulfon-yl)phenyl)-3-(3-methylisoxazol-5-yl)pyridin-2-amine trifluoroacetic acid salt]		> 10
COC1(C)CN(S(=O)(=O)c2ccc(C)c(-c3cnc(N)c(-c4cc(C)no4)c3)c2)C1 [Example 37.20, 5-(5-((3-Methoxy-3-methylazetidin-yl)sulfonyl)-2-methylphenyl)-3-(3-methylisoxazol-5-yl)pyridin-2-amine]	5.1	
Cc1cc(-c2cc(-c3cc(S(=O)(=O)NCC4(CO)CCOCC4)ccc3C)cnc2N)on1 [Example 37.1, 3-(6-Amino-5-(3-methylisoxazol-5-yl)pyridin-3-yl)-N-((4-(hydroxymethyl)tetrahydro-2H-pyran-4-yl)methyl)-4-methylbenzenesulfonamide]	3.5	
Cc1cc(-c2cc(-c3cc(S(=O)(=O)NCC4(O)CC4)ccc3C)cnc2N)on1 [Example 19.10, 3-(6-amino-5-(3-methylisoxazol-5-yl)pyridin-3-yl)-N-((1-hydroxycyclopropyl)methyl)-4-methylbenzenesulfon-amide trifluoroacetic acid salt]		> 10
Cc1noc(-c2cc(-c3cc(S(=O)(=O)NC4CCN(C(C)C)CC4)ccc3C)cnc2N)n1 [Example 37.34, 3-(6-Amino-5-(3-methyl-1,2,4-oxadiazol-5-yl)pyridin-3-yl)-N-(1-isopropylpiperidin-4-yl)-4-methylbenzenesulfonamide]	> 10	
